Literature values as cited in patent US11040008B2, “Pharmaceutical compositions of meloxicam” (Slayback Pharma LLC, priority 2018, dated 2021).

Tests used:
[1] = oral, fasted steady state conditions

Time of second meloxicam concentration peak post-dose [1]: twelve to fourteen
Solubility in water: practically insoluble in water
Structure (SMILES): Cc1cnc(NC(=O)C2=C(O)c3ccccc3S(=O)(=O)N2C)s1 [meloxicam, 4-hydroxy-2-methyl-N-(5-methyl-2-thiazolyl)-2H-1,2-benzothiazine-3-carboxamide-1,1-dioxide]
